Data: ChEMBL document CHEMBL1158270, “Triangulynes A-H and trangulynic acid, new cytotxic polyacetylenes from the marine sponge Pellina triangulata” (1996)
Calls of active or inactive are those of the source.

How the values were obtained:
Assay type in all cases: functional
[1] = system: SR; experiment: Cytotoxicity against human SR cells
[2] = system: CCRF-CEM; experiment: Cytotoxicity against human CCRF-CEM cells
[3] = system: MOLT-4; experiment: Cytotoxicity against human MOLT4 cells
[4] = system: K562; experiment: Cytotoxicity against human K562 cells
[5] = system: HT-29; experiment: Cytotoxicity against human HT29 cells
[6] = system: HCT-15; experiment: Cytotoxicity against human HCT15 cells
[7] = system: Malme-3M; experiment: Cytotoxicity against human MALME-3M cells
[8] = system: M14; experiment: Cytotoxicity against human M14 cells
[9] = system: COLO 205; experiment: Cytotoxicity against human COLO205 cells
[10] = system: HL-60; experiment: Cytotoxicity against human HL60 cells
[11] = system: RPMI-8226; experiment: Cytotoxicity against human RPMI8226 cells
[12] = system: SW-620; experiment: Cytotoxicity against human SW620 cells
[13] = system: KM12; experiment: Cytotoxicity against human KM12 cells
[14] = system: LOX IMVI; experiment: Cytotoxicity against human LOXIMVI cells
[15] = system: HCT-116; experiment: Cytotoxicity against human HCT116 cells
[16] = system: HCC 2998; experiment: Cytotoxicity against human HCC2998 cells

Measured: Activity

C#C/C=C\[C@H](O)CCCCCCCCCCC/C=C\CCCCCCCCCCC[C@H](O)C#CC#CC#CCO
active: [1] | [2] | [3] | [4] | [5] | [6] | [7] | [8] | [9] | [10] | [11] | [12] | [13] | [14] | [15] | [16]

C#CC(O)/C=C/CCCCCCCCC/C=C\C#CCCCCCCCCCC#CC#CC#CCO (configuration not stated)
active: [1] | [2] | [3] | [4] | [5] | [6] | [7] | [8] | [9] | [10] | [11] | [12] | [13] | [14] | [15] | [16]

C#C[C@H](O)/C=C/CCCCCCCC/C=C\CCCCCCCC[C@H](O)C#CC#CC#CCO
active: [1] | [2] | [3] | [4] | [5] | [6] | [7] | [8] | [9] | [10] | [11] | [12] | [13] | [14] | [15] | [16]

C#C[C@H](O)/C=C/CCCCCCCCC/C=C\C#CCCCCCCCC[C@H](O)C#CC#CC#CCO
active: [1] | [2] | [3] | [4] | [5] | [6] | [7] | [8] | [9] | [10] | [11] | [12] | [13] | [14] | [15] | [16]

C#C[C@H](O)/C=C/CCCCCCCCC/C=C\C#CCCCCCC[C@H](O)C#CC#CC#CCO
active: [1] | [2] | [3] | [4] | [5] | [6] | [7] | [8] | [9] | [10] | [11] | [12] | [13] | [14] | [15] | [16]

C#C[C@H](O)/C=C/CCCCCCCCCC/C=C\CCCCCCCC[C@H](O)C#CC#CC#CCO
active: [1] | [2] | [3] | [4] | [5] | [6] | [7] | [8] | [9] | [10] | [11] | [12] | [13] | [14] | [15] | [16]

C#C[C@H](O)/C=C/CCCCCCCCCCCC/C=C\CCCCCCCCCCCCCC[C@H](O)C#CC#CC#CCO
active: [1] | [2] | [3] | [4] | [5] | [6] | [7] | [8] | [9] | [10] | [11] | [12] | [13] | [14] | [15] | [16]
